Data set [1] is described as follows: Wide-angle x-ray diffraction (WAXRD) of powders. The note with it: powder, 2θ 5 to 35°. Format: physicochemical. The procedure:
The ABZ and ABZ-BA powders were characterized by an X’Pert3 Powder X-ray diffractometer (PANalytical, Inc. U.K.), a voltage of 40 kV, and a current of 40 mA. The samples were scanned from 2θ = 5 to 35° at a scanning speed of 1°/min, and the step size was at 0.01° 2θ [10].

Data set [2] is described as follows: Water solubility, stated in response to reviewers. It is filed as physicochemical. The text has this: ABZ and ABZ-BA are both water-insoluble, so we suspended the drug in a 0.5% sodium carboxymethyl cellulose (CMC-Na) aqueous solution. This method of administration has been widely used for the oral administration of poorly soluble drugs. This method has been adopted by our research group in previous studies, and many studies have been published that use this method, including the following: […]

For data set [3], the system named is protoscolex (PSCs). Briefly: Detection of protoscolex mortality / survival rate in vitro (trypan blue). It is filed as cell-based, E. multilocularis. Particulars: for inhibitory effect on PSC survival rate: 7 days, ABZ 10 μg/mL, ABZ-SO 10 μg/mL, ABZ-BA 13.45, 26.9, 53.8 μg/mL, liver homogenate + 0.2% DMSO, n = 3. From the text:
(§1) Protoscoleces (PSCs) from E. multilocularis were collected aseptically from alveolar echinococcosis obtained from the abdominal cavity of gerbils in Qinghai Research Key Laboratory for Echinococcosis, China. The specific operation steps were as follows: (1) dissect the successfully preserved Echinococcus protoscoleces gerbil model, isolate cysts and wash the residual liver tissue and blood with sterile Penicillin-Streptomycin solution (penicillin (1500 U/ mL) + streptomycin (1000 U/ mL)). (2) Place the clean cysts in sterile glassware, cut them into a slurry, filter the original head section with sterile gauze, and rinse them with Penicillin-Streptomycin solution 3 times. (3) Slightly rotate and shake the filtrate, absorb the suspended connective tissue, impurities, inactivated PSCs, and excess Penicillin-Streptomycin solution in the upper layer, repeat several times and finally concentrate the pure PSCs into the test tube. Viability was assessed by muscular movement (evaluated under an optical microscope), the motility of flame cells, and the exclusion test with methylene blue. The PSCs were incubated in an RPMI 1640 medium containing 0.20 mg/mL liver homogenous serous, 100 U/mL penicillin, 100 μg/mL streptomycin and 10% calf serum at 37°C in a 5% CO2 atmosphere at a concentration of (1000–2000) PSCs/mL.
(§2) The PSCs were divided into blank control groups (Groups 1 and 2), positive control groups (Groups 3 and 4), and experimental groups (Groups 5 to 7). Group 1 was RPMI-1640 medium with 0.20 mg/mL liver homogenate; Group 2 was 0.2% DMSO medium with 0.2% DMSO; Group 3 was RPMI-1640 medium with 0.20 mg/mL liver homogenate and 0.2% DMSO, containing 10 μg/mL Albendazole; Group 4 was RPMI-1640 medium with 0.20 mg/mL liver homogenate and 0.2% DMSO, containing 10 μg/mL albendazole sulfoxide; Groups 5–7 were RPMI-1640 medium with 0.20 mg/mL liver homogenate and 0.2% DMSO, containing 13.45, 26.9 and 53.8 μg/mL ABZ-BA, with effective ABZ concentrations of 5, 10 and 20 μg/mL, respectively. The culture medium and drug were changed every 3 days for one week. PSCs samples (10 μL) were collected every day and stained with 0.4% trypan blue staining solution, observed under an inverted microscope, and photographed to record PSC mortality.

Data set [4] deals with protoscolex (PSCs). In words: Protoscolex microstructure by optical microscope and SEM. Particulars: 5 days after treatment. It is filed as cell-based, E. multilocularis.
From the text: as §1, §2
For ultrastructural studies, 200 μL PSCs were taken from each group 5 days after treatment and fixed with 4% glutaraldehyde in sodium cacodylate buffer at 4°C for 72 hours. Samples were dehydrated by continuous incubation in increasing concentrations of ethanol (50–100%), and ethanol was removed by supercritical extraction. They were then sputter-coated with gold (100 Å thick) and examined on an FEI Quanta 200 scanning electron microscope operating at 20 kV.

A short description of data set [5]: Systemic pharmacokinetics in SD rats (UHPLC-MS). The note with it: for Cmax: po, 25 mg/kg. Format: in vivo, Sprague-Dawley (SD) rats. The procedure:
A Dionex Ultimate 3000 RSLC system (Thermofisher) combined with an Accucore aQ C18 column (150 mm×2.1 mm, 2.6 μm, Thermo fisher) was used in the sample separation process. The separation speed was set at […] for all gradients. 1 μL of injection volume and a constant temperature of (25 ± 1°C were set for the column. The eluents were A, water with 0.1% formic acid (v/v) and B, methanol; the gradient program was as follows: 0–6 min, 8–40% B; 6–8 min, 40–100% B; 8–10 min, 100% B; 10–11 min, 100–8% B; 11–13 min, 8% B.
Heated electro-spray ionization (HE-SI) was paired with a Q-Orbitrap MS in the MS analysis. The flow rate of auxiliary, sheath and sweep gas was set at 35, 10, and 1 (arbitrary unit), respectively. A full MS-ddMS^2 mode was used to perform the analysis. The damping gas in the C-trap and nitrogen was used to stabilize the spraying. Temperatures of 350°C and 320°C were set and kept for the auxiliary gas heater and capillary. Under negative mode, 3.0 kV was adopted for the spray voltage, 60 V was used for the S-lens RF level, 50 ms was used for the maximum injection time, and 3.0 ^e6 was set as the automatic gain control target. Full MS-ddMS^2 scan ranged from 150.0000 to 800.0000 m/z. Precise molecular weight […] was used for qualitative analysis, the corresponding peak area was used for quantitative analysis, and MS^2 fragments were used for further qualitative analysis.
A cross-over design was employed with male SD rats (n = 7) to evaluate in vivo pharmacokinetics. The rats were subjected to fasting for one night before each administration and were fed 4 hours after administration. ABZ was administered by gavage (25 mg/kg). Blood was collected under isoflurane anesthesia at a flow rate of 2.0 mL/min. At 0.25, 0.5, 1, 2, 2.5, 3, 4, 6, 8, 12, and 24 hours after administration, 200–500 μL blood was collected from the orbital venous plexus and centrifuged at 13000 rpm for 5 min. The upper plasma was stored at—80°C for testing.
Plasma samples were thawed at room temperature, and 100 μL was added to an equal volume of mass spectrometry grade methanol, vortexed for 1 min, and centrifuged again at 13000 rpm for 5 min. 100 μL of the supernatant were added to 100 μL of 200 ng/mL mebendazole IS solution, vortexed for 1 min, and centrifuged again at 13000 rpm for 5 min. The resulting sample was injected by UHPLC-HR-ESI-MS with an injection volume of 1 μL. The pharmacokinetic study of SD rats was performed according to the standards recommended by the "Guidelines for the Care and Use of Laboratory Animals" (Animal Laboratory Resources Institute, 1995) and was approved by the Institutional Animal Care and Use Committee of Qinghai University.

“Also recorded” adds a separate entry of the source. Where two headings read alike, the source gives them in different places. Bounds are passed on as bounds.

For orientation: Cmax means the peak of the concentration-time curve. A word on the Tmax: it is the time at which the peak concentration occurs. By AUC(0-inf) is commonly meant total exposure, with the tail of the curve extrapolated.

Turning to `CCCSc1ccc2nc(NC(=O)OC)[nH]c2c1` [ABZ, Albendazole], in data set [1], the “physical state (WAXRD)” value is recorded as “crystalline”. Also, in data set [2] (reason for dosing as suspension in 0.5% CMC-Na), the water solubility entry was “water-insoluble”. Also, in the data set with protoscolex (PSCs) [3], the “inhibitory effect on PSC survival rate” value was “time and concentration-dependent inhibitory effects”. For the same compound, the “PSC morphology under the SEM” value in the data set with protoscolex (PSCs) [4] (10 μg/mL) was “elongated and curled up”. The “PSC morphology under the optical microscope (OM)” value with protoscolex (PSCs) [4] (10 μg/mL) was “became vacuolar and transparent”. The “mortality of PSCs” value in the data set on protoscolex (PSCs) [4] (10 μg/mL, vs blank groups) was “significantly higher than in the blank groups”. The Cmax in data set [5] (male, Sprague-Dawley, rat, in vivo, SD rats, oral 25mg/kg of API) is 76.4 ± 7.62 ng/mL; in data set [5] (male, Sprague-Dawley, rat, in vivo, SD rats, oral 25 mg/kg, n = 7, Table 2), 8.44 ± 3.6 ng/mL. Further, the Tmax in data set [5] (male, Sprague-Dawley, rat, in vivo, SD rats, oral 25 mg/kg, n = 7) amounted to 10.9 ± 1.95 h. In data set [5] (male, Sprague-Dawley, rat, in vivo, SD rats, oral 25 mg/kg, n = 7, Abz = ABZ content of ABZ-BA), this compound returned an AUC(0-inf) of 101 ± 45.9 ng·h/mL. Further, in data set [5] (male, Sprague-Dawley, rat, in vivo, SD rats, oral 25 mg/kg, n = 7, Abz = ABZ content of ABZ-BA, read-out: AUC(0–24)), the AUC(0-t) worked out at 91.5 ± 42.7 ng·h/mL. Moreover, in data set [5] (male, Sprague-Dawley, rat, in vivo, SD rats, oral 25 mg/kg, n = 7, read-out: MRT(0-∞)), the MRT inf is 13.9 ± 3.98 h. Further, in data set [5] (male, Sprague-Dawley, rat, in vivo, SD rats, oral 25 mg/kg, n = 7, read-out: MRT(0–24)), the MRT last was found to be 11.6 ± 0.91 h. Besides, the Vd/F in data set [5] (male, Sprague-Dawley, rat, in vivo, SD rats, oral 25 mg/kg, n = 7, read-out: Vz/F) worked out at 1990 ± 1620 L/kg. In addition, the half-life in data set [5] (male, Sprague-Dawley, rat, in vivo, SD rats, oral 25 mg/kg, n = 7, read-out: t1/2z (converted)) is 331 ± 256 min. The concentration at 8 h in data set [5] (male, Sprague-Dawley, rat, in vivo, SD rats, oral 25mg/kg, lower limit of detection, read-out: blood concentration after oral administration for 8 hours) was less than 1 ng/mL.

On to `CCCSc1ccc2[nH]c(NC(=O)NCCCCOC(=O)CCC(C)C3CCC4C5C(O)CC6CC(O)CCC6(C)C5CC(O)C34C)nc2c1` (stereo not drawn) [ABZ-BA], for which the “physical state (WAXRD)” value in data set [1] is on record as “amorphous”. For the same compound, the water solubility result in data set [2] is recorded as “water-insoluble”. The “inhibitory effect on PSC survival rate” value in the data set with protoscolex (PSCs) [3] was “time and concentration-dependent inhibitory effects”. In addition, in the data set on protoscolex (PSCs) [3] (in vitro), the “inhibitory effect / killing ability on PSCs compared with ABZ” value is “identical to that of ABZ; also recorded: the same as that of ABZ”. Further, in the data set with protoscolex (PSCs) [4] (ABZ-BA 13.45 μg/mL), the “PSC morphology, lowest concentration” value is recorded as “obvious shrinkage at the lowest concentration, but the suckers were still clearly visible”. Further, the “PSC morphology, intermediate and high concentration” value in the data set with protoscolex (PSCs) [4] (ABZ-BA 26.9 and 53.8 μg/mL) was “strikingly distinct from their original form, appearing in a disc state after death”. Besides, the “detectability in blood after oral administration for 8 hours” value in data set [5] (SD rats, oral 25 mg/kg) is on record as “easily detected”. Moreover, the “pharmacokinetic behavior compared with Albenda” value in data set [5] (rat, in vivo) is listed as “superior to that of Albenda”.

The values above are taken from article PMC9838834, “Improvement of Antialveolar echinococcosis efficacy of novel Albendazole-Bile acids Derivatives with Enhanced Oral Bioavailability” (PLOS Neglected Tropical Diseases, 2023).
